Laboratory results as given in PubChem BioAssay AID1391 (Sanford-Burnham Center for Chemical Genomics, 2008).

Tested on: CSM14.1 cells, thapsigargin-induced p-p38/p38 MSD ELISA
Assay: inhibition of thapsigargin-induced p38 phosphorylation, dose response, mechanism study for ER stress apoptosis inhibitor project, MSD ELISA, CSM14.1 cells (AID 1391)
Conditions: at 10 µM (top of the series)

Compound	p-p38/p38 ratio, lower = inhibition
COc1ccc(C2CC(=O)C3=C(C2)Nc2ccccc2NC3c2cccc(Oc3ccccc3)c2)cc1OC (configuration not stated)	1.86
CC1(C)CC(=O)C2=C(C1)Nc1ccccc1NC2c1ccc(-c2ccccc2)cc1 (configuration not stated)	1.47
